Laboratory results: patent publication US10081628B2, “Apoptosis-inducing agents for the treatment of cancer and immune and autoimmune diseases” (AbbVie Inc., priority 2013, dated 2018)
Read-outs that look alike come from different tables or passages of the source.

Assays:
RS4;11 cells [1] = details: Blood, 2008, Vol. 111, 2300-2309; cited from earlier work
GST-Bcl-2 = GST-Bcl-2 (Homo sapiens, UniProt P10415); experiment: TR-FRET Bcl-2 binding assay (F-Bak peptide probe); details: GST-Bcl-2 1 nM, F-Bak peptide probe 100 nM, Tb-anti-GST 1 nM; Wang's equation; '<' = below limit of detection
Chain of GST-Bcl-2 (P10415 whole entry): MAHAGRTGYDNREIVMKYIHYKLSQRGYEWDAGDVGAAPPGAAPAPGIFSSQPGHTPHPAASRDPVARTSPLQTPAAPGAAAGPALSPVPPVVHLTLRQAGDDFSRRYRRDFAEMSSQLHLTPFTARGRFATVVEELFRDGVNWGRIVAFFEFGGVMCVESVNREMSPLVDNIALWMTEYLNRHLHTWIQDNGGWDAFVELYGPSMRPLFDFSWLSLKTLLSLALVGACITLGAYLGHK
Method in brief: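 Competitive TR-FRET displacement of F-Bak peptide probe from GST-Bcl-2 detected with Tb-anti-GST antibody; compounds serially diluted in DMSO from 50 μM (2× starting concentration). Mixtures incubated 3 h at room temperature, read at 340 nm excitation with 520 and 495 nm emission. Ki derived by Wang's equation.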

RS4;11 cells [2] = experiment: RS4;11 cell viability assay (CellTiter Glo); assay type: cell-based; details: 10% human serum, 48 hours
Method in brief: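 Cells seeded at 50,000 per well and exposed to compounds for 48 h at 37 C, 5% CO2 in the presence of 10% human serum. Viability read by CellTiter Glo; EC50 derived from percentage of viable cells versus untreated controls.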

lymphocytes = experiment: Lymphocyte reduction in C57BL/6 mice; assay type: in vivo; details: Mus musculus, ip
Method in brief: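 C57Bl/6 mice dosed intraperitoneally at 30 mg/kg daily for four days. Blood cell counts by hematology analyzer 24 hours after first and last doses; exposure (AUC) from samples at 1, 6, 10 and 24 hours after last dose.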

Structure (SMILES)	sensitivity of RS4;11 cells to the Bcl-2 family member inhibitor (RS4;11 cells [1])	Ki (GST-Bcl-2) [nM]	EC50 (RS4;11 cells [2]) [nM]	inhibition at 30 mg/kg (lymphocytes; 30 mg/kg intraperitoneal every day for four days, 24 hours after the last dose, read-out: Lymphocyte reduction % inh. day 4) [%]	inhibition at 30 mg/kg (lymphocytes; 30 mg/kg intraperitoneal every day, 24 hours after the first dose, read-out: Lymphocyte reduction % inh. day 1) [%]
CN(C)CC[C@H](CSc1ccccc1)Nc1ccc(S(=O)(=O)NC(=O)c2ccc(N3CCN(Cc4ccccc4-c4ccc(Cl)cc4)CC3)cc2)cc1[N+](=O)[O-] [ABT-737, N-(4-(4-((4′-chloro(1,1′-biphenyl)-2-yl)methyl)piperazin-1-yl)benzoyl)-4-(((1R)-3-(dimethylamino)-1-((phenylsulfanyl)methyl)propyl)amino)-3-nitrobenzenesulfonamide]	sensitive				
CC1(C)CCC(CN2CCN(c3ccc(C(=O)NS(=O)(=O)c4ccc(NCC5(C#N)CCOCC5)c([N+](=O)[O-])c4)c(Oc4cnc5[nH]ccc5c4)c3)CC2)=C(c2ccc(Cl)cc2)C1 [Example 46, 4-(4-{[2-(4-chlorophenyl)-4,4-dimethylcyclohex-1-en-1-yl]methyl}piperazin-1-yl)-N-[(4-{[(4-cyanotetrahydro-2H-pyran-4-yl)methyl]amino}-3-nitrophenyl)sulfonyl]-2-(1H-pyrrolo[2,3-b]pyridin-5-yloxy)benzamide]		< 0.1	6.9	35	46
